According to ChEMBL document CHEMBL1201862, “PubChem BioAssay data set” (2004):
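Where inhibition never reached the appropriate level, the endpoint shown equals the highest concentration tested. Otherwise, values were interpolated linearly from a five-concentration, 48-hour dose response in 96-well plates. Abbreviation: GI50, concentration required for 50% inhibition of growth.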 Active and inactive are the calls of the source. No stated cut-off is given here; in the data, active = GI50 up to about 1.1 µM and inactive = higher.

Key:
Assay in all cases: growth of human tumour cells (NCI), 48 h
SF-295 = test system: SF-295
MDA-N = test system: MDA-N
HL-60 = test system: HL-60
UACC-62 = test system: UACC-62
ACHN = test system: ACHN
K562 = test system: K562
UACC-257 = test system: UACC-257
NCI-H460 = test system: NCI-H460
U-251 = test system: U-251
IGROV-1 = test system: IGROV-1
CCRF-CEM = test system: CCRF-CEM
HCT-116 = test system: HCT-116
Hs-578T = test system: Hs-578T
SW-620 = test system: SW-620
SF-539 = test system: SF-539
NCI-H522 = test system: NCI-H522
TK-10 = test system: TK-10

Row | SMILES | GI50 (SF-295) | GI50 (MDA-N) | GI50 (HL-60) | GI50 (UACC-62) | GI50 (ACHN) | GI50 (K562) | GI50 (UACC-257) | GI50 (NCI-H460) | GI50 (U-251) | GI50 (IGROV-1) | GI50 (CCRF-CEM) | GI50 (HCT-116) | GI50 (Hs-578T) | GI50 (SW-620) | GI50 (SF-539) | GI50 (NCI-H522) | GI50 (TK-10)
1 | Clc1ccc(C2ON=C(c3ccccc3)N2C23CC4CC(CC(C4)C2)C3)cc1 (configuration not stated) | > 10 µM (inactive) | > 10 µM (inactive) | > 10 µM (inactive) | > 10 µM (inactive) | > 10 µM (inactive) | > 10 µM (inactive) | > 10 µM (inactive) | > 10 µM (inactive) | > 10 µM (inactive) | > 10 µM (inactive) | > 10 µM (inactive) | > 10 µM (inactive) | > 10 µM (inactive) | > 10 µM (inactive) | > 10 µM (inactive) | > 10 µM (inactive) | > 10 µM (inactive)
2 | CCNC(=O)Nc1cccc(NC(=O)NCC)n1 | > 100 µM (inactive) | > 100 µM (inactive) | 34.1 µM (inactive) | 36 µM (inactive) | > 100 µM (inactive) | > 100 µM (inactive) | 92.9 µM (inactive) | > 100 µM (inactive) | > 100 µM (inactive) | > 100 µM (inactive) | > 100 µM (inactive) | > 100 µM (inactive) | > 100 µM (inactive) | > 100 µM (inactive) | > 100 µM (inactive) | > 100 µM (inactive) | 50.2 µM (inactive)
3 | CCC(C#N)NCc1cccc(CNC(C#N)CC)c1 (configuration not stated) | 19.5 µM (inactive) | > 100 µM (inactive) | > 100 µM (inactive) | > 100 µM (inactive) | > 100 µM (inactive) | > 100 µM (inactive) | > 100 µM (inactive) | > 100 µM (inactive) | > 100 µM (inactive) | > 100 µM (inactive) | > 100 µM (inactive) | > 100 µM (inactive) | 98.9 µM (inactive) | > 100 µM (inactive) | > 100 µM (inactive) | > 100 µM (inactive) | > 100 µM (inactive)
4 | c1ccc(C2C3=C(c4ccccc4CC3)N3c4cc5c(cc4=NC34CCCCC24)Nc2ccccc2N=5)cc1 (configuration not stated) | > 10 µM (inactive) | 5.83 µM (inactive) | 3.77 µM (inactive) | > 10 µM (inactive) | 7.26 µM (inactive) | 5.27 µM (inactive) | > 10 µM (inactive) | 5.14 µM (inactive) | > 10 µM (inactive) | > 10 µM (inactive) | 1.67 µM (inactive) | 5.55 µM (inactive) | > 10 µM (inactive) | 9.64 µM (inactive) | > 10 µM (inactive) | 1 µM (active) | > 10 µM (inactive)
5 | COc1ccc2c(c1)/C(=C\c1c(Cl)[nH]c3ccccc13)C(=O)N2 | 1.97 µM (inactive) | 1.75 µM (inactive) | 3.18 µM (inactive) | 5.16 µM (inactive) | 5.25 µM (inactive) | 3.62 µM (inactive) | 6.14 µM (inactive) | 3.98 µM (inactive) | 3.71 µM (inactive) | 1.21 µM (inactive) | 3.21 µM (inactive) | 2.57 µM (inactive) | 2.51 µM (inactive) | 3.4 µM (inactive) | 3.61 µM (inactive) | 3.05 µM (inactive) | 6.9 µM (inactive)
6 | O=C(O)c1cc2cc(OCc3ccccc3)ccc2[nH]1 | > 100 µM (inactive) | > 100 µM (inactive) | > 100 µM (inactive) | > 100 µM (inactive) | > 100 µM (inactive) | > 100 µM (inactive) | 5.06 µM (inactive) | > 100 µM (inactive) | > 100 µM (inactive) | > 100 µM (inactive) | > 100 µM (inactive) | > 100 µM (inactive) | 4.72 µM (inactive) | > 100 µM (inactive) | > 100 µM (inactive) | > 100 µM (inactive) | > 100 µM (inactive)
